Experimental data taken from PubChem BioAssay (NCI).
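GI50 = concentration required for 50% inhibition of growth. TGI marks complete inhibition of growth.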

Columns and labels:
Assay in all cases: NCI-60 cell line screen, 384-well format
SR leukemia = tested on: SR leukemia
MDA-MB-435 melanoma = tested on: MDA-MB-435 melanoma
PC-3 prostate = tested on: PC-3 prostate
SF-295 CNS = tested on: SF-295 CNS
SK-MEL-28 melanoma = tested on: SK-MEL-28 melanoma
DU-145 prostate = tested on: DU-145 prostate
K-562 leukemia = tested on: K-562 leukemia
OVCAR-8 ovarian = tested on: OVCAR-8 ovarian
NCI-H23 lung = tested on: NCI-H23 lung
ACHN renal = tested on: ACHN renal
786-0 renal = tested on: 786-0 renal
IGROV1 ovarian = tested on: IGROV1 ovarian
RXF 393 renal = tested on: RXF 393 renal
UACC-257 melanoma = tested on: UACC-257 melanoma
LOX IMVI melanoma = tested on: LOX IMVI melanoma
SW-620 colon = tested on: SW-620 colon
HCC-2998 colon = tested on: HCC-2998 colon
T-47D breast = tested on: T-47D breast
MDA-MB-231 breast = tested on: MDA-MB-231 breast
OVCAR-4 ovarian = tested on: OVCAR-4 ovarian
HOP-62 NSCLC = tested on: HOP-62 NSCLC
SNB-75 CNS = tested on: SNB-75 CNS
UACC-62 melanoma = tested on: UACC-62 melanoma
MDA-MB-468 breast = tested on: MDA-MB-468 breast
KM12 colon = tested on: KM12 colon
SNB-19 CNS = tested on: SNB-19 CNS
NCI-H322M lung = tested on: NCI-H322M lung
MOLT-4 leukemia = tested on: MOLT-4 leukemia
HCT-15 colon = tested on: HCT-15 colon
NCI-H522 lung = tested on: NCI-H522 lung
A498 renal = tested on: A498 renal
HOP-92 NSCLC = tested on: HOP-92 NSCLC
A549 NSCLC = tested on: A549 NSCLC
OVCAR-3 ovarian = tested on: OVCAR-3 ovarian
BT-549 breast = tested on: BT-549 breast
MCF7 breast = tested on: MCF7 breast
NCI/ADR-RES ovarian = tested on: NCI/ADR-RES ovarian
SK-MEL-5 melanoma = tested on: SK-MEL-5 melanoma
NCI-H460 NSCLC = tested on: NCI-H460 NSCLC
HS 578T breast = tested on: HS 578T breast
UO-31 renal = tested on: UO-31 renal
SF-268 CNS = tested on: SF-268 CNS
TK-10 renal = tested on: TK-10 renal
HL-60(TB) leukemia = tested on: HL-60(TB) leukemia
CCRF-CEM leukemia = tested on: CCRF-CEM leukemia
M14 melanoma = tested on: M14 melanoma
SN12C renal = tested on: SN12C renal
HT29 colon = tested on: HT29 colon
NCI-H226 lung = tested on: NCI-H226 lung
RPMI-8226 leukemia = tested on: RPMI-8226 leukemia
OVCAR-5 ovarian = tested on: OVCAR-5 ovarian
CAKI-1 renal = tested on: CAKI-1 renal
EKVX NSCLC = tested on: EKVX NSCLC
SK-OV-3 ovarian = tested on: SK-OV-3 ovarian
SF-539 CNS = tested on: SF-539 CNS
MALME-3M melanoma = tested on: MALME-3M melanoma
COLO 205 colon = tested on: COLO 205 colon

O=C(CC1(O)C(=O)Nc2c(Cl)ccc(Cl)c21)c1ccc(C2CC2)cc1 (centres undefined)
GI50 (SR leukemia): 16.9 nM
TGI (SR leukemia): 33.7 nM
GI50 (MDA-MB-435 melanoma): 24.5 nM
TGI (MDA-MB-435 melanoma): 59.6 nM
GI50 (PC-3 prostate): 372 nM
TGI (PC-3 prostate): 14.4 µM
GI50 (SF-295 CNS): 112 nM
TGI (SF-295 CNS): 853 nM
GI50 (SK-MEL-28 melanoma): 221 nM
TGI (SK-MEL-28 melanoma): 18.9 µM
GI50 (DU-145 prostate): 338 nM
TGI (DU-145 prostate): 2490 nM
GI50 (K-562 leukemia): 46.2 nM
TGI (K-562 leukemia): 211 nM
GI50 (OVCAR-8 ovarian): 257 nM
TGI (OVCAR-8 ovarian): 1230 nM
GI50 (NCI-H23 lung): 192 nM
TGI (NCI-H23 lung): 759 nM
GI50 (ACHN renal): 743 nM
TGI (ACHN renal): 17.2 µM
GI50 ([…]-0 renal): 377 nM
TGI (786-0 renal): 12 µM
GI50 (IGROV1 ovarian): 882 nM
TGI (IGROV1 ovarian): 17 µM
GI50 (RXF 393 renal): 155 nM
TGI (RXF 393 renal): 793 nM
GI50 (UACC-257 melanoma): 280 nM
TGI (UACC-257 melanoma): 2340 nM
GI50 (LOX IMVI melanoma): 434 nM
TGI (LOX IMVI melanoma): 4.65 µM
GI50 (SW-620 colon): 45.7 nM
TGI (SW-620 colon): 15.5 µM
GI50 (HCC-2998 colon): 277 nM
TGI (HCC-2998 colon): 4.61 µM
GI50 (T-47D breast): 323 nM
TGI (T-47D breast): 18.2 µM
GI50 (MDA-MB-231 breast): 182 nM
TGI (MDA-MB-231 breast): 16.3 µM
GI50 (OVCAR-4 ovarian): 369 nM
TGI (OVCAR-4 ovarian): 7.59 µM
GI50 (HOP-62 NSCLC): 199 nM
TGI (HOP-62 NSCLC): 13.4 µM
GI50 (SNB-75 CNS): 96.7 nM
TGI (SNB-75 CNS): 3.17 µM
GI50 (UACC-62 melanoma): 38.9 nM
TGI (UACC-62 melanoma): 5.04 µM
GI50 (MDA-MB-468 breast): 30.2 nM
TGI (MDA-MB-468 breast): 94.4 nM
GI50 (KM12 colon): 74.7 nM
TGI (KM12 colon): 2770 nM
GI50 (SNB-19 CNS): 528 nM
TGI (SNB-19 CNS): 15.3 µM
GI50 (NCI-H322M lung): 845 nM
TGI (NCI-H322M lung): 18 µM
GI50 (MOLT-4 leukemia): 47.3 nM
TGI (MOLT-4 leukemia): 135 nM
GI50 (HCT-15 colon): 51.9 nM
TGI (HCT-15 colon): 2060 nM
GI50 (NCI-H522 lung): 45.1 nM
TGI (NCI-H522 lung): 179 nM
GI50 (A498 renal): 226 nM
TGI (A498 renal): 10.7 µM
GI50 (HOP-92 NSCLC): 210 nM
TGI (HOP-92 NSCLC): 11 µM
GI50 (A549 NSCLC): 546 nM
TGI (A549 NSCLC): 13.8 µM
GI50 (OVCAR-3 ovarian): 73.1 nM
TGI (OVCAR-3 ovarian): 286 nM
GI50 (BT-549 breast): 49 nM
TGI (BT-549 breast): 2730 nM
GI50 (MCF7 breast): 111 nM
TGI (MCF7 breast): 13.5 µM
GI50 (NCI/ADR-RES ovarian): 69.2 nM
TGI (NCI/ADR-RES ovarian): 276 nM
GI50 (SK-MEL-5 melanoma): 142 nM
TGI (SK-MEL-5 melanoma): 414 nM
GI50 (NCI-H460 NSCLC): 225 nM
TGI (NCI-H460 NSCLC): 611 nM
GI50 (HS 578T breast): 119 nM
TGI (HS 578T breast): 284 nM
GI50 (UO-31 renal): 10.6 µM
TGI (UO-31 renal): 23 µM
GI50 (SF-268 CNS): 387 nM
TGI (SF-268 CNS): 11.2 µM
GI50 (TK-10 renal): 10.4 µM
TGI (TK-10 renal): 25.2 µM
GI50 (HL-60(TB) leukemia): 37.7 nM
TGI (HL-60(TB) leukemia): 120 nM
GI50 (CCRF-CEM leukemia): 130 nM
TGI (CCRF-CEM leukemia): 262 nM
GI50 (M14 melanoma): 54 nM
TGI (M14 melanoma): 266 nM
GI50 (SN12C renal): 575 nM
TGI (SN12C renal): 20.1 µM
GI50 (HT29 colon): 50.5 nM
TGI (HT29 colon): 248 nM
GI50 (NCI-H226 lung): 732 nM
TGI (NCI-H226 lung): 14.2 µM
GI50 (RPMI-8226 leukemia): 133 nM
TGI (RPMI-8226 leukemia): 271 nM
GI50 (OVCAR-5 ovarian): 900 nM
TGI (OVCAR-5 ovarian): 17.7 µM
GI50 (CAKI-1 renal): 173 nM
TGI (CAKI-1 renal): 15.2 µM
GI50 (EKVX NSCLC): 385 nM
TGI (EKVX NSCLC): 16.9 µM
GI50 (SK-OV-3 ovarian): 238 nM
TGI (SK-OV-3 ovarian): 14.1 µM
GI50 (SF-539 CNS): 206 nM
TGI (SF-539 CNS): 907 nM
GI50 (MALME-3M melanoma): 61.5 nM
TGI (MALME-3M melanoma): 10.3 µM
GI50 (COLO 205 colon): 124 nM
TGI (COLO 205 colon): 448 nM
